In patent publication US10705094B2, “TNF receptor signaling modulator assay” (UCB Biopharma SRL, priority 2015, dated 2020):
pIC50, pKd: −log10 of the molar value.

Tests used:
TNFα [1] = biological target: T1, TNFα (Homo sapiens, UniProt P01375); assay: Surface plasmon resonance kinetics of compound binding to immobilised TNFα (Biacore T100/T200)
Method: Surface plasmon resonance was used to measure the association rate, the dissociation rate and the affinity of the compounds of formulae (1) and (2) for TNFα (FIGS. 13A and B). For the purpose of this study a Biacore T100/T200 was used.
TNFα was immobilised at pH5 to a level of 5-8 KRU onto a CMS sensor in HBS-P buffer (10 mM HEPES pH 7.4, 0.15 M NaCl, 0.005% Surfactant P20, BIAcore, GE Healthcare). The TNFα was then equilibrated in HBS-P with 5% DMSO for at least 5 hours. The samples were diluted from 10 mM stocks into DMSO matched buffer and left to solubilise for at least 5 hours. The flow rate was 30 μL/min.
This assay was performed by adding 4 or 5 concentrations of compound starting from a highest concentration of 25 μM for compound of formula (1) and 1 μM for compound of formula (2) and then serially diluting this sample. Background subtraction binding curves were analysed using the BIAevaluation software following standard procedures. Binding, affinity and kinetic parameters were determined using Biacore software. The kinetic data were fitted using the levenberg marquardt algorithm.

TNFα [2] = biological target: T1, TNFα; assay: Fluorescence polarization assay, competition with the compound of formula (4) for TNFα; conditions: TNFα 50 nM, compound of formula (4) 10 nM, 5% DMSO; read-out: IC50 (inhibition of binding of the compound of formula (4) to TNFα)
Method: The final concentrations of TNFα and the compound of formula (4) were 50 nM and 10 nM respectively in a total assay volume of 25 μl. Plates were read on an Analyst HT reader. An IC50 was calculated using xlfit (4 parameter logistic model) in Activity Base.
C87 was preincubated with TNFα for 1 hour prior to assay against the fluorescent compound (probe). Competition with the fluorescent compound either directly (binding at the same site) or indirectly (disrupting TNF) is detected by a reduction in FP.

TNFα [3] = biological target: T1, TNFα; assay: L929 murine fibrosarcoma cell-killing (neutralisation) assay; format: cell-based, mouse; parameters: host or cells: added to L929 murine fibrosarcoma cells (ECACC, 85011425); conditions: L929 cells; read-out: IC50 (inhibition of cell killing activity of human TNFα)
Method: The L929 neutralisation assays were carried out using the protocol disclosed in Baarsch M J J et al (Immunol Methods 1991; 140: 15-22) and Galloway C J et al J (Immunol Methods 1991; 140: 37-43).
Briefly, L929 cells (ECACC, 85011425) were cultured in culture medium consisting of RPMI 1640 (Gibco) containing 10% FCS (PAA), 2 mM glutamine (Gibco), 50 U/ml penicillin (Gibco) and 50 μg/ml streptomycin (Gibco). When they were subcultured, the cells were washed three times with 10 mL Dulbecco's phosphate-buffered saline without calcium and magnesium (Gibco) and 3 ml of trypsin-EDTA (Gibco) was then added for 2 minutes to remove the cells from the flask. Culture medium was added to neutralise the trypsin and the cells pipetted up and down to remove any clumps.
The L929 cells were split 1/2 or 1/3 the day before use and cultured for a further 24 hours. The flasks were then trypsinised as above and 2×10^4 cells in 100 μl were added per well of a 96 well flat-bottomed plate (Becton Dickinson). The plates were cultured for 24 hours before the assay was set up.
Serial dilutions were made from DMSO stocks of the compounds.
The assay medium was the same as culture medium but also contained 1 μg/ml actinomycin D (Sigma). The medium was flicked off the plates and the assay samples plus TNFα, standards and controls were added in 100 μl volumes in duplicate. Plates were incubated for a further 16 hours and then 10 μl per well of a 5 mg/ml methylthiazoletetrazolium (MTT; Sigma) solution in culture medium was added for a further 4 hours. The reaction was stopped by the addition of 100 μl of solubilisation buffer containing 20% sodium dodecyl sulphate (SDS, BDH) dissolved in 50% dimethyl formamide (DMF; BDH) and 50% deionised water.
After overnight incubation at 37° C. to allow the dye to dissolve, the plates were read on a Multiskan EX plate reader (Labsystem) at 570 nm with subtraction at 630 nm. Data were analysed using the Genesis software package.

[4] = biological target: T2, TNFα binding to the TNF receptor (TNFR-ECD) (Homo sapiens, UniProt P01375); assay: Meso Scale Discovery (MSD) assay of TNFα binding to plate-coated TNFR-ECD; conditions: single point assay, 100 μM compound, 5% final v/v DMSO
T2 construct: purchased R&D Systems
Method: 384 well uncoated plates (standard binding) Meso Scale Discovery plates (MSD) were coated overnight with the extracellular domain of TNFR (TNFR-ECD) (10 μl, 1 ug/mL in PBS). To ensure even distribution plates were centrifuged at 1000 rpm for 2 minutes. The plates were then sealed and stored at +4° C. overnight.
The wells of the plates were then washed three times in 50 μl phosphate buffered saline pH 6.5 (PB) with 0.05% Tween 20 (wash buffer), and then blocked with 50 μl 2% BSA. The plates were then incubated at room temperature on a shaker (600 rpm) for 2 hours. After this incubation plates were washed (3×50 μl wash buffer per well).
During the blocking incubation, compounds of formulae (1) and (2) were pre-incubated with TNF (R&D Systems) prior to addition to the pre-blocked and washed MSD plates. For a single point assay as shown in FIG. 3A the compounds were assayed at a final concentration of 100 μM (5% final v/v DMSO).
Pre-diluted compounds of formulae (1) and (2) were added at a ratio of 1:1 to 4 ng/mL TNF (final concentration 2 ng/ml), and then incubated at room temperature on a shaker 600 rpm for 1 hour.
10 μl of pre-incubated mixtures of compound of formulae (1) or (2) with TNFα were added to the prepared MSD plate and incubated at room temperature on a shaker for 1 hour.
The plates were then washed with wash buffer (3×50 μl per well). Sulfo-tagged anti-TNF polyclonal antibody was then added to each well and the plates incubated for a further 1.5 hours at room temperature on a shaker.
The plates were then washed (3×50 μl wash buffer per well), followed by the addition of 50 μl MSD Read buffer T plus surfactant (diluted 1 in 2 in H2O) and read on a SECTOR Imager 6000.
For single point assays percentage inhibition was calculated using a control sample without compound.
For EC50s determination results were calculated by standard means using a 4 parameter logistic model (sigmoidal dose response model).

T1 sequence (P01375 77-233 limits assumed): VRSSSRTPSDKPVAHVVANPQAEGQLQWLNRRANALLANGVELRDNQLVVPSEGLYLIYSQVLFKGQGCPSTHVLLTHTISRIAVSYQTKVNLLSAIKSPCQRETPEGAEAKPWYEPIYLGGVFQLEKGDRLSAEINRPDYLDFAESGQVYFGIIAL
T2 sequence (P01375 77-233 limits assumed): as above

SMILES | pKd (TNFα [1]; calculated from koff/kon, read-out: dissociation constant (KD)) | kon (TNFα [1]; immobilised TNFα, HBS-P with 5% DMSO) | koff (TNFα [1]; immobilised TNFα, HBS-P with 5% DMSO, read-out: dissociation rate constant (koff)) | pIC50 (TNFα [2]) | pIC50 (TNFα [3]) | % inhibition of TNFα binding to the TNF receptor [4]
O=C1CCCN1c1cccc(OCc2nc3ccc(-c4ccc(=O)[nH]c4)cc3n2Cc2ccccc2OC(F)F)c1 [Compound (3), 5-(1-[2-(Difluoromethoxy)benzyl]-2-{[3-(2-oxo-pyrrolidin-1-yl)phenoxy]methyl}-1H-benzimidazol-6-yl)-pyridin-2(1H)-one] | 8.15 | 5470 M⁻¹ s⁻¹ | 4.07e-05 s⁻¹ | 7.70 | 7.68 | 
Cc1cc2occ(CN(C)CCN(C)Cc3cn(-c4cccc(C(F)(F)F)c4)c4ccccc34)c(=O)c2cc1C [SPD-304, reference compound] |  |  |  |  |  | +80%
